Our source for the Ki values is patent publication US6482827B1, “Matrix metalloproteinase inhibitors” (Pharmacia & Upjohn S.p.A., priority 1997, dated 2002).

In test [1] the target is T1, Human collagenase (MMP-1) (Homo sapiens, UniProt P03956).
T1 sequence (P03956 101-269): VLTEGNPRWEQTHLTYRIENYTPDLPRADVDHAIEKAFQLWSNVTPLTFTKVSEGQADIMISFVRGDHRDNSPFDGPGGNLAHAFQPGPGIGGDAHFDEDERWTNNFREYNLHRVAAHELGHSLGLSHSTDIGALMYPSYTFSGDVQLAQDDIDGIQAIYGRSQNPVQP
The test is described as follows: Biochemical assay (Protocol A), Ki at steady state, MMP-1. To be noted: preincubation, 37° C., pH=7.4, read-out: Ki at steady state (Ki*) for inhibition of MMP-1. As for the experimental part: (§1) Human gelatinase-A (MMP-2) was obtained as pro-enzyme (72 kDa) and was activated with 1 mM 4-aminophenylmercuric acetate for 30 min at 37° C. immediately prior to use. Human stromelysin-1-255 (MMP-3) was obtained as a recombinant pro-enzyme isolated from E. coli and activated by heat (1 h, 55° C.).
(§2) The substrate was the commercial quenched-fluorescence peptide Mca-Pro-Leu-Gly-Leu-Dpa-Ala-Arg-NH2, that is (7-methoxycoumarin4-yl)Acetyl-Pro-Leu-Glv-Leu-(3-[2,4-dinitrophenyl]-L-2,3-diamino-propionyl)-Ala-Arg-NH2 (C. G. Knight et al., FEBS Lett.296:263, 1992). The enzymes cleave at the Gly-Leu bond, removing the internally quenching Dpa group. Release of the highly fluorescent peptide Mca-Pro-Leu was followed fluorimetrically at 37° C. using a Perkin Elmer LS-50 Fluorescence Spectrophotometer fitted with a thermostatted four position stirring cell changer. The excitation wavelength was set at 326 nm (bandwidth 5 nm) and the emission at 392 nm (bandwidth 20 nm). Km values of this substrate for the three MMP's is 70 μM or more (Knight et al., reference above). Substrate concentration was 2 μM in the tests, so that we could approximate to unit the term (1+[substrate]/KM) in calculations. The substrate was stable for over 60 minutes in the assay conditions, giving no appreciable increment of fluorescence. Full response was adjusted against 200 nM Mca-Pro-Leu-OH (the released fluorescent peptide) and the instrument was calibrated in the range 0-100 nM Mca-Pro-Leu-OH, corresponding to 0-5% extent of hydrolysis of the 2 μM substrate. The aqueous assay buffer was 50 mM Tris/HCl pH=7.4 containing 0.15 M NaCl, 10 mM CaCl2, 0.01 mM ZnCl2 and 0.05% Brij 35. The concentration of the activated enzyme was determined by titration against representative inhibitors described in the literature and synthesized in house: Roche Ro31-9790 (N. G. Knebel et al., J. Chromatogr. B 673:213, 1995) for MMP-1, and Celltech CT-1418 (compound 1 in S. K. Chander, J. Pharm. Sci. 84:404, 1995) for MMP-2 and MMP-3. Enzyme concentrations in the tests were set at 1.0 nM for MMP-1, 0.04 nM for MMP-2, and 3.0 nM for M-3. Under our assay conditions, we measured keat/KM values of 26900, 669000 and 9740 1/(M×s) for MMP-1, MMP-2 and MMP-3, respectively. All the three enzymes were found stable for over three hours in the assay conditions.
(§3) The inhibition constant for compounds of the present invention was measured at steady state (Ki*; see J. F. Morrison and C. T. Walsh, Adv. Enzymol. Relat. Areas Mol. Biol. 61:201, 1988), upon preincubation experiment, by measuring V0, the initial rate in the absence of inhibitor, and Vs, the steady-state velocity, at different concentrations of inhibitors in the region of their enzyme-inhibitor dissociation constants.
(§4) On a routine basis, 1.94 mL of assay buffer was pre-heated at 37° C. in a vial, 0.02 mL of inhibitor in DMSO (or DMSO only), and 0.02 ml of 100 nM MMP-1 or 4 nM MMP-2 or 300 nM MMP-3 were added, mixed, and the vial was held at 37° C. for 5-180 minutes. Then 0.02 ml of 0.2 mM substrate was added, mixed and transferred into a pre-heated cell. The sample was allowed to equilibrate in the cuvette for 3-5 min at 37° C. against small changes in temperature and changes in the enzyme-inhibitor equilibria related to addition of substrate. After that, the linear increase of fluorescence was monitored over 3-5 min, and the slope (Vo or Vs) was obtained. Inhibitor concentrations were varied to collect data over Vs/Vo ratio ranging from 0.05 to 0.95. The values of Ki* were calculated by nonlinear weighted regression to the tight-binding equation according to Morrison and Walsh above:
(§5) Vs/Vo=[1/(2×Et)]×SQR[(Ki*+It−Et)^2+4×Ki*×Et]−(Ki*+It−Et)
(§6) wherein Et is the total enzyme concentration, and It is the total inhibitor concentration. The following Table I lists Ki* obtained for some representative examples: […]

Test [2] concerns the target T2, Human gelatinase-A (MMP-2) (Homo sapiens, UniProt P08253).
T2 sequence (P08253 110-660): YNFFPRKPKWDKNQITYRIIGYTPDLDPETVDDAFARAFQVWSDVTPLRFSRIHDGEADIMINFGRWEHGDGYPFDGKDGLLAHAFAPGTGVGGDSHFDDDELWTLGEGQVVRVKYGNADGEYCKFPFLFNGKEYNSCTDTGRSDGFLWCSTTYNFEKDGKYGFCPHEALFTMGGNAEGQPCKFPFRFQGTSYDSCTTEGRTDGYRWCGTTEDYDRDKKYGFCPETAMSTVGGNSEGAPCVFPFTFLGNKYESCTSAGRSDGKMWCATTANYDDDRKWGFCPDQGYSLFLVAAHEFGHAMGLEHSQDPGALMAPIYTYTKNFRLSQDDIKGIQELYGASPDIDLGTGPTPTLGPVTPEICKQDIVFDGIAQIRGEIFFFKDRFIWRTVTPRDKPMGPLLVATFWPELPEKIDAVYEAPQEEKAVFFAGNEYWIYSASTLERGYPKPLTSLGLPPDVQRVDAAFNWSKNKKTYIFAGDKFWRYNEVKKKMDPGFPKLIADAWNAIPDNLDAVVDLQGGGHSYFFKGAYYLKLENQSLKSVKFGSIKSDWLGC
Description: Biochemical assay (Protocol A), Ki at steady state, MMP-2. To be noted: preincubation, 37° C., pH=7.4, read-out: Ki at steady state (Ki*) for inhibition of MMP-2. As for the experimental part:
as §1, §2, §3, §4, §5, §6

Test [3] has as its target T3, Human stromelysin-1-255 (MMP-3) (Homo sapiens, UniProt P08254).
T3 construct: host or cells: E. coli
The test is described as follows: Biochemical assay (Protocol A), Ki at steady state, MMP-3. To be noted: preincubation, 37° C., pH=7.4, read-out: Ki at steady state (Ki*) for inhibition of MMP-3. As for the experimental part:
as §1, §2, §3, §4, §5, §6

T3 sequence (P08254 100-255 limits assumed): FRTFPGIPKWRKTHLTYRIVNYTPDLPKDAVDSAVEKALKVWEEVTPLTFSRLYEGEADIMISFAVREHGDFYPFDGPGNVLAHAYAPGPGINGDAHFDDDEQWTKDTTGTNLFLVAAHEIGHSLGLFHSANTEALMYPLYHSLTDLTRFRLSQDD

Regarding `COc1ccc(CCC[C@@H](C(=O)N2CCOCC2)[C@H](NC(=O)OC(C)(C)C)C(=O)NO)cc1` [Example 15, (3S-tert-Butoxycarbonylamino-4-hydroxyamino-2R-(4-methoxy)phenpropyl)succinyl-morpholinamide], the Ki (usually a measure of affinity in units of concentration, obtained from inhibition or displacement) in test [1] was 17000 nM; in test [2], 630 nM; in test [3] it was 6500 nM.

As for `COc1ccc(CCC[C@@H](C(=O)N2CCCCC2)[C@H](NC(=O)OC(C)(C)C)C(=O)NO)cc1` [Example 17, (3S-tert-Butoxycarbonylamino-4-hydroxyamino-2R-(4-methoxy)phenpropyl)succinyl-piperidinamide], the Ki in test [1] stood at 9400 nM; in test [2], 610 nM; in test [3], 4300 nM.

Take `COc1ccc(CCC[C@@H](C(=O)N2CCOCC2)[C@H](NS(=O)(=O)c2ccc(OC)cc2)C(=O)NO)cc1` [Example 20, (4-Hydroxyamino-3S-(4-methoxyphenylsulfonyl)amino-2R-(4-methoxy)phenpropyl)succinyl-morpholinamide]: the values for the Ki in test [1], in test [2] and in test [3] were 2000 nM, 40 nM and 390 nM, respectively.

In the case of `COc1ccc(S(=O)(=O)N[C@H](C(=O)NO)[C@@H](CC2CCCC2)C(=O)N2CCCCC2)cc1` [Example 23, (2R-Cyclopentylmethyl-4-hydroxyamino-3S-(4-methoxyphenylsulfonyl)amino)succinyl-piperidinamide], the Ki in test [1] was found to be 3 nM; in test [2], 16 nM; in test [3], 145 nM.

Take `CC(C)C[C@@H](C(=O)NC(C1CCCCC1)C1CCCCC1)[C@H](N)C(=O)NO` [Example 24, (3S-Amino-4-hydroxyamino-2R-isobutyl)succinyl-dicyclohexylmethylamide]: the Ki in test [1] amounted to 170 nM; in test [2], 400 nM; in test [3] it was 11000 nM.

As for `CC(C)C[C@@H](C(=O)NC(c1ccccc1)c1ccccc1)[C@H](N)C(=O)NO` [Example 25, (3S-Amino-4-hydroxyamino-2R-isobutyl)succinyl-diphenylmethylamide], the Ki in test [1] turned out to be 76 nM; in test [2], 190 nM; in test [3] it was 2300 nM.

Turning to `CC(C)(C)OC(=O)N[C@H](C(=O)NO)[C@@H](CC1CCCC1)C(=O)N1CCN(Cc2ccc3c(c2)OCO3)CC1` [Example 26, (3S-tert-Butoxycarbonylamino-2R-cyclopentylmethyl-4-hydroxyamino)succinyl-(4-piperonyl)piperazinamide], the Ki amounted to 71 nM in test [1], 100 nM in test [2] and 600 nM in test [3].

For `COc1ccc(CCC[C@@H](C(=O)N2CCC2)[C@H](N)C(=O)NO)cc1` [Example 28, (3S-Amino-4-hydroxyamino-2R-(4-methoxy)phenpropyl)succinyl-azetidinamide], the inhibitory constant (Ki) in test [1] came to 7500 nM; in test [2] it was 600 nM; in test [3], 10000 nM.

`CN(C)[C@H](C(=O)NO)[C@@H](CC1CCCC1)C(=O)N1CCCCC1` [Example 30, (2R-Cyclopentylmethyl-3S-N,N-dimethylamino-4-hydroxyamino)succinyl-piperidinamide]: the Ki in test [1] is 3.6 nM; in test [2] it was 25 nM; in test [3], 270 nM.

For `COc1ccc(CCC[C@@H](C(=O)N[C@H](C)C2CCCCC2)[C@H](N)C(=O)NO)cc1` [Example 32, (3S-Amino-4-hydroxyamino-2R-(4-methoxy)phenpropyl)succinyl-(1R-cyclohexylethyl)amide], the Ki in test [1] was 2600 nM; in test [2], 37 nM; in test [3], 500 nM.

With `COc1ccc(CCC[C@@H](C(=O)N[C@@H](C)C2CCCCC2)[C@H](N)C(=O)NO)cc1` [Example 33, (3S-Amino-4-hydroxyamino-2R-(4-methoxy)phenpropyl)succinyl-(1S-cyclohexylethyl)amide], the Ki in test [1] is > 10000 nM; in test [2], 460 nM; in test [3], 6600 nM.

`COc1ccc(CCC[C@@H](C(=O)N2CCC(C(=O)NC(C)(C)C)CC2)[C@H](N)C(=O)NO)cc1` [Example 34, (3S-Amino-4-hydroxyamino-2R-(4-methoxy)phenpropyl)succinyl-(4-tert-butylaminocarbonyl)piperidinamide]: the Ki in test [1] was 2400 nM; in test [2] it was 21 nM; in test [3], 1400 nM.

On to `CN(C)[C@H](C(=O)NO)[C@@H](CC1CCCC1)C(=O)N1CCN(Cc2ccc3c(c2)OCO3)CC1` [Example 35, (2R-Cyclopentylmethyl-3S-N,N-dimethylamino-4-hydroxyamino)succinyl-(4-piperonyl)-piperazinamide], for which the Ki was 2.9 nM in test [1], 8 nM in test [2] and 31 nM in test [3].

For `COc1ccc(S(=O)(=O)N[C@H](C(=O)NO)[C@@H](CC2CCCC2)C(=O)N2CCN(Cc3ccc4c(c3)OCO4)CC2)cc1` [Example 37, (2R-Cyclopentylmethyl-4-hydroxyamino-3S-(4-methoxyphenyl)sulfonylamino)succinyl-(4-piperonyl)piperazinamide], the values for the Ki in test [1], in test [2] and in test [3] were 1.8 nM, 2.6 nM and 35 nM, respectively.

With `COc1ccc(CCC[C@@H](C(=O)N2CCCCC2)[C@H](NCc2cccnc2)C(=O)NO)cc1` [Example 39, (4-Hydroxyamino-2R-(4-methoxy)phenpropyl-3S-(3-pyridyl)methylamino)succinyl-piperidinamide], the Ki was determined as 760 nM in test [1], 90 nM in test [2] and 806 nM in test [3].

For the compound `O=C(NO)[C@@H](NS(=O)(=O)c1ccc(F)cc1)[C@@H](CC1CCCC1)C(=O)N1CCCCC1` [Example 61, (2R-Cyclopentylmethyl-3S-(4-fluorophenylsulfonyl)amino-4-hydroxyamino)succinylpiperidinamide], the Ki in test [1] came to 7.8 nM; in test [2], 66 nM.
